pIC50: −log10 of the molar value.
What was measured:
Assay type in all cases: cell-based
[1] = tested on: MCF-7 cells; assay: IC50 assay with MCF-7 breast cancer cells; conditions: Homo sapiens, MCF7, 0.6 to 10 μM, read-out: half-maximal decrease in viability
Description: (§1) U87MG cells were seeded in a 24-well plate, 5000 cells per well, and incubated overnight at 37° C. in serum-free media. The next day they were treated in triplicate with 50 and 100 μM of each test compound (1), (2), (3), (4), and (5) and the reference compound FTS. After five days, the cells were trypsinized (0.5%), stained with trypan blue, and counted to determine the cell number per well. The half-maximal inhibitory concentration (IC50) values were calculated using Multiplex Reader-Fit software made by MiraiBio Group, Hitachi Solutions America, Ltd. In a typical experiment, the control wells averaged 138,000 cells. The results are presented graphically in FIG. 1. The test compounds at 50 μM allowed the following U87MG cell proliferation compared to control: compound (1)—37%, compound (2)—18%, compound (3)—10%, compound (4)—40%, and compound (5)—0%. The reference compound FTS at 50 μM allowed 7% cell proliferation compared to control.
MCF-7 breast cancer cells, which harbor an activating “K-Ras variant” mutation, were subjected to an IC50 assay similar to Example 6 above. This “K-Ras variant” mutation is in a site that a microRNA binds to, destabilizing the mRNA that encodes Ras. […] MCF-7 cells were grown in concentrations of compound (5) ranging from 0.6 to 10 μM.

[2] = tested on: activated, GTP-bound form of Ras (Ras-GTP); assay: Ras-GTP Western blot in SCF-stimulated NF-1+/- mast cells; conditions: 10-15 μM, 3 minutes after SCF stimulation (FIG. 4A)
Description: Purified populations of NF-1+/−mast cells were stimulated with a maximum stimulating concentration of stem cell factor (SCF) in the presence of a control or compound (5) at concentrations of 10-15 μM. The activated, GTP-bound form of Ras (Ras-GTP) was measured 3 minutes subsequently using Western blot analysis. […] In parallel experiments, mast cell proliferation was measured using 3H-thymidine incorporation 24 hours after SCF stimulation in the presence of a control or compound (5) at concentrations of 0-12.5 μM. […] Each asterisk in FIG. 4B represents a statistical difference relative to the control using analysis of variance. (Yang, Feng-Chun, et. al. J Clin Invest 2003, 112(12), 1851-1861; Yang, Feng-Chun, et. al. Hum Mol Genet 2006, 15(11), 1921-1930).

[3] = tested on: PANC-1 cells; assay: Cell proliferation assay for PANC-1 cells; conditions: 1.25 μM, media with 5% serum, five days (FIG. 3)
Description: (§2) The adult glioblastoma cell line U87MG was obtained from a commercial source (ATCC). The pancreatic cancer cell line PANC-1 was obtained from a local laboratory (Indiana University). Both lines were grown in Iscove's Modified Dulbecco's Medium with 10% fetal bovine serum (FBS) at 37° C. and 5% CO2.
(§3) Compounds (1), (2), (3), (4), and (5), which are shown and described above, were each dissolved in ethanol at 10 mg/mL. A measured portion of the solution was pipetted into a microcentrifuge tube. Then, the ethanol was evaporated from each tube using a SpeedVac®, leaving just the compound in the tube. The appropriate amount of chloroform was added to the tube to produce a 0.1 M concentration. The solutions were placed on ice and in the dark so they could be pipetted into 10- and 20-μL aliquots in 1.5 mL microcentrifuge tubes. The solutions were frozen at […] with lids closed tightly and the tubes covered with foil.
(§4) Prior to treating the cells, a tube of the test compound was removed from the freezer and placed under a biosafety hood to evaporate the chloroform in the tubes. Then, dimethyl sulfoxide (DMSO) was added to the tubes to make the correct concentration to use in the experiment (0.1 M stock). The tubes were vortexed, and warm media with 10% FBS was slowly added to make the correct working concentrations to be used in the experiment. The compounds were directly added to each well for treatment.
The cells were treated in triplicate with standard concentrations of 6.25, 12.5, 25, 50, and 100 μM of each test compound (3) and (5) and the reference compound FTS and, when needed, concentrations of 0.625, 1.25, 2.5 and 5.0 μM in media with 5% serum for five days. Then, the cells were stained with trypan blue, and the cell number per each well was determined. Again, the IC50 values were calculated using Multiplex Reader-Fit software made by MiraiBio Group, Hitachi Solutions America, Ltd. In a typical experiment, the control wells averaged 32,500 cells. The results are presented graphically in FIG. 3. […]

[4] = tested on: U87MG cells; assay: Cell proliferation assay for U87MG cells
Description: as §2, §3, §4, §1
To further evaluate compounds (3) and (5), which inhibited the most cell growth in FIG. 1, more U87MG cells were seeded in 24-well plates, 5000 cells per well, and incubated overnight at 37° C. in serum-free media. The cells were treated the next morning in media with 5% serum in triplicate with standard concentrations of 6.25, 12.5, 25, and 50 μM of each test compound (3) and (5) and the reference compound FTS. After five days of treatment, the cells were trypsinized (0.5%) and then stained with trypan blue. Cells were counted to determine the number of cells per well. Again, the IC50 values were calculated using Multiplex Reader-Fit software made by MiraiBio Group, Hitachi Solutions America, Ltd. In a typical experiment, the control wells averaged 56,000 cells. The results are presented graphically in FIG. 2. The test compounds at 25 μM allowed the following U87MG cell proliferation compared to control: compound (3)—69% and compound (5)—0%. The reference compound FTS at 25 μM allowed over 50% cell proliferation compared to control.
Since the doses of compound (5) used above killed all of the cells, the dose curve was set up again using even lower doses of compound (5). U87MG cells were seeded in 24-well plates, 5000 cells per well, and incubated overnight at 37° C. in serum-free media. The cells were treated in triplicate with 6.25, 12.5, 25, and 50 μM of the reference compound FTS and 0.3125, 0.625, 1.25, 2.5, and 5.0 μM of the test compound (5) in media with 5% serum for five days. Then, the cells were trypsinized (0.5%) and stained with trypan blue, and the cell number per each well was determined. […]

pIC50 [1]: 5.70
pIC50 ([4]; Homo sapiens, U-87 MG, value quoted in Example 7, read-out: IC50 as determined on the U87MG cells): 5.60
Structure (SMILES): CC(C)=CCC/C(C)=C/CC/C(C)=C/CSc1ccccc1C1=NCCN1 [compound (5), 2-(2-{[(2E,6E)-3,7,11-trimethyldodeca-2,6,10-trien-1-yl]sulfanyl}phenyl)-4,5-dihydro-1H-imidazole]
level of Ras-GTP relative to the control [2]: significantly reduced
PANC-1 cell proliferation compared to control [3]: 56%
U87MG cell proliferation compared to control ([4]; 2.5 μM, media with 5% serum, five days (FIG. 2)): 56%
U87MG cell proliferation compared to control ([4]; 25 μM, media with 5% serum, five days (FIG. 2)): 0%
U87MG cell proliferation compared to control ([4]; 50 μM, five days, trypan blue cell count (FIG. 1)): 0%

Source: patent US9738614B2, “Malignant and non-malignant disease treatment with Ras antagonists” (PISCES THERAPEUTICS, LLC, priority 2011, dated 2017)
